What was measured:
Type in all cases: binding
MCHR1 = target: T1, MCHR1 (Homo sapiens, UniProt Q99705); assay: NanoBRET screen HiBiT-MCHR1 in HEK293
T1 construct: purchased Promega (in-house HiBiT-GPCR construct library, NanoBRET)
Description: (§1) Each tracer candidate was screened across the entire library of HiBiT-GPCR constructs using NanoBRET as the detection modality. As depicted in Figure 4A, the specificity of interactions was evaluated through decrease in BRET due to competitive displacement of a bound tracer by excess parental compound. Each tracer was analyzed for binding to each HiBiT-GPCR fusion in the absence and in the presence of competing parental compound. Briefly, HEK293 cells were transfected with HiBiT-GPCR constructs diluted into promoterless DNA to reduce expression and maximize translocation to the cell surface. Each tracer candidate was then screened at concentrations of 1 μM and 0.1 μM across cells expressing these fusions. Cells were treated for 1.5 h with tracer either alone or in the presence of 20 μM competing parental compound (i.e., control). BRET was measured upon addition of purified LgBiT and subsequent complementation with HiBiT genetically fused to a GPCR. The specificity of interactions was assessed through a decrease in BRET signal due to competitive displacement of the bound tracer. To further gauge the robustness of these interactions, the fold response over the control (i.e., BRETtracer/BRETcontrol) was calculated. We chose a 1.5-fold response, which translates to ≥7-fold signal over noise as the minimal threshold required to score an interaction as positive. […]. Below we highlight the screening results obtained for our exemplary fluorescent tracers based on Clozapine, Amitriptyline and AZD1283.
(§2) HiBiT-GPCR DNA constructs were diluted in 10 mM Tris pH 8 to a final concentration of 0.01 μg/μL, arrayed in 96-well plates and stored at −20 °C. For transfection, HEK293 cells were suspended in Opti-MEM (without phenol red) supplemented with 2% fetal bovine serum (Seradigm) and 100 units/mL penicillin–streptomycin (Gibco) at a final concentration of 220,000 cells/mL and dispensed into white 96-well plates at 90 μL/well. Subsequent transfections and screens were carried using an Agilent Bravo Automated Liquid Handling Platform. First, the 96-well HiBiT DNA arrays were diluted 25-fold in Opti-MEM (without serum or phenol red) to a final concentration of 0.0004 μg/μL and 20 μL of the diluted DNAs were transferred into new 96-well plates. Next, promoterless carrier DNA (1 μg/μL) was diluted 25-fold (0.04 μg/μL) and then dispensed into the diluted arrays at 20 μL/well. Following brief mixing, Viafect transfection reagent (Promega) diluted 16-fold into Opti-MEM was dispensed into the plates at 40 μL/well. After mixing by pipetting, plates were incubated for 10 min on the pipetting station deck. The DNA-transfection reagent complexes were then added to plates containing cells. To facilitate the screen, 10 μL of DNA-transfection reagent complexes were added in duplicates to the top 4 and bottom 4 rows, resulting in two identical 48-well arrays per plate. Plates with transfected cells were incubated for 18–20 h at 37 °C/5% CO2. A screen of each tracer across the entire library using two different concentrations requires duplicate plates of transfected cells. Depending on the number of tracers being screened, transfections can be scaled up using the same ratios. The next day, for each tracer, four 20× screening solutions in tracer dilution buffer (Promega) were prepared: two duplicates at final concentration of 20 μM and two duplicates at a final concentration of 2 μM. A competing unmodified compound was added to one of each duplicate at a final concentration of 400 μM. The four resulting solutions were diluted 4-fold in Opti-MEM without serum or phenol red to generate 5× solutions (5 µM and 0.5 µM tracer +/− 100 μM competing compound). To screen the library, a BioTek MultiFlo FX liquid dispenser was used to dispense 22.5 µL of tracer solution to the top 4 rows and 22.5 µL tracer + competing compound solution to the 4 bottom rows. Plates were briefly mixed on an orbital shaker and incubated for 1.5 h at room temperature. […]

AGTR1 = target: T2, AGTR1 (Homo sapiens, UniProt P30556); assay: NanoBRET screen HiBiT-AGTR1 in HEK293
T2 construct: purchased Promega (in-house HiBiT-GPCR construct library, NanoBRET)
T2 sequence (P30556 1-359): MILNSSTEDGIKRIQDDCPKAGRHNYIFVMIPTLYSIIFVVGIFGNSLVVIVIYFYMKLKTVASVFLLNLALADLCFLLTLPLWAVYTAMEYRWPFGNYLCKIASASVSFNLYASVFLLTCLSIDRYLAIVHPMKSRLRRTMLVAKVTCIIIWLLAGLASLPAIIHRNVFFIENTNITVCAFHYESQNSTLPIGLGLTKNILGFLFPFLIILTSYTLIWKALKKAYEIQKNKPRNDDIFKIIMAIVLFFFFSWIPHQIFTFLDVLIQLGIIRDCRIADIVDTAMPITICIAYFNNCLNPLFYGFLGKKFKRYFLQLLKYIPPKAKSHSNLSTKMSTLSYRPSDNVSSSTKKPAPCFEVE
Description: as §1, §2

PTGDR2 = target: T3, PTGDR2 (Homo sapiens, UniProt Q9Y5Y4); assay: NanoBRET screen HiBiT-PTGDR2 in HEK293
T3 construct: purchased Promega (in-house HiBiT-GPCR construct library, NanoBRET)
T3 sequence (Q9Y5Y4 1-395): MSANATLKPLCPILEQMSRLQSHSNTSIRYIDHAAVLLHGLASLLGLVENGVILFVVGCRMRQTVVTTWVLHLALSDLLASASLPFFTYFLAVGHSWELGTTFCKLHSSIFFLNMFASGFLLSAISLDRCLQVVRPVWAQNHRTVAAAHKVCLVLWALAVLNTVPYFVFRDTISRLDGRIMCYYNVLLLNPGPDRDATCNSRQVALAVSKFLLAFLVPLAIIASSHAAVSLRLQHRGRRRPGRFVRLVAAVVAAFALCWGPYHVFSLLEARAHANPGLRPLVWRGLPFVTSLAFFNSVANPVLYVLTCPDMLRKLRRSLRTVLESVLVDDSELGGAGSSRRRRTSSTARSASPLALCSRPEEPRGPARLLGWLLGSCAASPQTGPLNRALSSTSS
Description: as §1, §2

P2RY4 = target: T4, P2RY4 (Homo sapiens, UniProt P51582); assay: NanoBRET screen HiBiT-P2RY4 in HEK293
T4 construct: purchased Promega (in-house HiBiT-GPCR construct library, NanoBRET)
T4 sequence (P51582 whole entry): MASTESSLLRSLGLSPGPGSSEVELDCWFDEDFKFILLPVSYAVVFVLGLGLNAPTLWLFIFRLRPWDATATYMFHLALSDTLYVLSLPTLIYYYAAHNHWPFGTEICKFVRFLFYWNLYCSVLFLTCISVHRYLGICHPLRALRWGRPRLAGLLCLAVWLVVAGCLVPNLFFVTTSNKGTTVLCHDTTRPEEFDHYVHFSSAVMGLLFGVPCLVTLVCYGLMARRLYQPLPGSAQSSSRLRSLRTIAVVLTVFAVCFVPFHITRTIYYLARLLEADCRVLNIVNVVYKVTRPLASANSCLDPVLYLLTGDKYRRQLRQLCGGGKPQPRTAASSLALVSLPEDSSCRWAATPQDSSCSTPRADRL
Description: as §1, §2

SSTR5 = target: T5, SSTR5 (Homo sapiens, UniProt P35346); assay: NanoBRET screen HiBiT-SSTR5 in HEK293
T5 construct: purchased Promega (in-house HiBiT-GPCR construct library, NanoBRET)
T5 sequence (P35346 whole entry): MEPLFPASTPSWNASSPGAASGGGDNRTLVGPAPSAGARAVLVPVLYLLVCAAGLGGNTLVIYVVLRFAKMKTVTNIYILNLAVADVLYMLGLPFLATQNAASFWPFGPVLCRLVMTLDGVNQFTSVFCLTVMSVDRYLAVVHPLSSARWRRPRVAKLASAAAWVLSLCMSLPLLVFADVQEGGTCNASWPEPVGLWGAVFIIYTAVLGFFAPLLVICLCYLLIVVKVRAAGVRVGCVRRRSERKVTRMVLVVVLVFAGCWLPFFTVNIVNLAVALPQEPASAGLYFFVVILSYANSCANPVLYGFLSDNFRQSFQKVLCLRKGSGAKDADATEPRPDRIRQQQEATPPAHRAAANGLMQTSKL
Description: as §1, §2

CCR2 = target: T6, CCR2 (Homo sapiens, UniProt P41597); assay: NanoBRET screen HiBiT-CCR2 in HEK293
T6 construct: purchased Promega (in-house HiBiT-GPCR construct library, NanoBRET)
T6 sequence (P41597 whole entry): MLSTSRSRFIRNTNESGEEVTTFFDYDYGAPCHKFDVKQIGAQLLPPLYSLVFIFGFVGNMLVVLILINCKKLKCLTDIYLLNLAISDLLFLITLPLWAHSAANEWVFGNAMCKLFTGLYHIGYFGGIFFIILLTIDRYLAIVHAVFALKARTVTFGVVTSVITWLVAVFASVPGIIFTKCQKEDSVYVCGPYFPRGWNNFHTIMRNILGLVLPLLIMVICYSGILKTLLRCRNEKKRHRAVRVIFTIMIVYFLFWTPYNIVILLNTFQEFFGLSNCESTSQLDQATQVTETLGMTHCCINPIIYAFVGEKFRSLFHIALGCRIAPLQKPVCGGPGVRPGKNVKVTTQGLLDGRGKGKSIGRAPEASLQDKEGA
Description: as §1, §2

RXFP2 = target: T7, RXFP2 (Homo sapiens, UniProt Q8WXD0); assay: NanoBRET screen HiBiT-RXFP2 in HEK293
T7 construct: purchased Promega (in-house HiBiT-GPCR construct library, NanoBRET)
T7 sequence (Q8WXD0 whole entry): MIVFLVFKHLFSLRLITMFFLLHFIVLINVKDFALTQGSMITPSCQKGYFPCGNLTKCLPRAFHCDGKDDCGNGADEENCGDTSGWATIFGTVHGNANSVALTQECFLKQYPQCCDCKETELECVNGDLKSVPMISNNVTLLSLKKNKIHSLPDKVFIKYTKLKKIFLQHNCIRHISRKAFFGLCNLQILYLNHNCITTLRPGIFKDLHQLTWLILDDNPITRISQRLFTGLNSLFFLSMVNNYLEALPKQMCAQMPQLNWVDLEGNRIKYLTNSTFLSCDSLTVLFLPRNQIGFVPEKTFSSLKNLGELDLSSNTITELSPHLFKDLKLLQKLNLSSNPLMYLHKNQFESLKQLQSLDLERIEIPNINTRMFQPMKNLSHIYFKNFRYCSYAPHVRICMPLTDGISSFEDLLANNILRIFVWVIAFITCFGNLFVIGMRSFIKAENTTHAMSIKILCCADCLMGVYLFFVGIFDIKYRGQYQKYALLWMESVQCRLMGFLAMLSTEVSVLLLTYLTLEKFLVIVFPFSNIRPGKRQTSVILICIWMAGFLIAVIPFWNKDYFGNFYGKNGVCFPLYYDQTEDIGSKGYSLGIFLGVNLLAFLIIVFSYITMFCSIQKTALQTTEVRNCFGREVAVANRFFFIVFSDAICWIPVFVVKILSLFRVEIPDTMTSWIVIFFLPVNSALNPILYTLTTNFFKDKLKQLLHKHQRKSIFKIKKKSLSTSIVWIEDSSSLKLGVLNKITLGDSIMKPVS
Description: as §1, §2

T1 sequence (Q99705 whole entry): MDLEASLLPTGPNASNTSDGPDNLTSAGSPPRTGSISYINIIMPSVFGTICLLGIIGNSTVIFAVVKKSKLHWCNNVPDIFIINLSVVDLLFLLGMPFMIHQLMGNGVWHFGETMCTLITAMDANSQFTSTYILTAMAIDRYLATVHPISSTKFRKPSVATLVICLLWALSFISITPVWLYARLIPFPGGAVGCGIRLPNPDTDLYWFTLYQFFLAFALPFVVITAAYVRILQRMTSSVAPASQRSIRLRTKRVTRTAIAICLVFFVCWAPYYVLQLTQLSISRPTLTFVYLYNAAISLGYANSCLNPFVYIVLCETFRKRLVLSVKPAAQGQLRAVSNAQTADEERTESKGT

Row | Structure (SMILES) | NanoBRET Fold Response (MCHR1; MCHR1, tracer 0.1μM) | NanoBRET Fold Response (MCHR1; MCHR1, tracer 1μM) | NanoBRET Fold Response (AGTR1; AGTR1, tracer 0.1μM) | NanoBRET Fold Response (AGTR1; AGTR1, tracer 1μM) | NanoBRET Fold Response (PTGDR2; PTGDR2, tracer 0.1μM) | NanoBRET Fold Response (PTGDR2; PTGDR2, tracer 1μM) | NanoBRET Fold Response (P2RY4; P2RY4, tracer 0.1μM) | NanoBRET Fold Response (P2RY4; P2RY4, tracer 1μM) | NanoBRET Fold Response (SSTR5; SSTR5, tracer 0.1μM) | NanoBRET Fold Response (SSTR5; SSTR5, tracer 1μM) | NanoBRET Fold Response (CCR2; CCR2, tracer 0.1μM) | NanoBRET Fold Response (CCR2; CCR2, tracer 1μM) | NanoBRET Fold Response (RXFP2; RXFP2, tracer 0.1μM) | NanoBRET Fold Response (RXFP2; RXFP2, tracer 1μM) | other results
1 | O=C(CCOCCOCCOCCOCCNC(=O)CCc1ccc2n1[B-](F)(F)[N+]1=C(c3ccc[nH]3)C=CC1=C2)NCCCN1CCN(C2=Nc3ccccc3Oc3ccc(Cl)cc32)CC1 [Loxapine-a-2-NB590] | 1.03 | 1.20 | 0.96 | 1.08 | 1.06 | 1.04 | 0.95 | 1.28 | 1.10 | 1.15 | 0.97 | 0.81 | 0.94 | 0.64 | –
2 | O=C(CCc1ccc2n1[B-](F)(F)[N+]1=C(c3ccc[nH]3)C=CC1=C2)NCCOCCOCCNC(=O)OCCOCCN1CCN(C2=Nc3ccccc3Sc3ccccc32)CC1 [Quetiapine-a-2-NB590] | 1.04 | 0.84 | 1.00 | 0.92 | 0.96 | 1.05 | 1.05 | 0.84 | 1.03 | 0.83 | 1.00 | 0.88 | 1.31 | 1.01 | –
3 | COc1ccccc1N1CCN(CCCCN2C(=O)c3ccc(CNC(=O)CCOCCOCCOCCOCCNC(=O)CCc4ccc5n4[B-](F)(F)[N+]4=C(c6ccc[nH]6)C=CC4=C5)cc3C2=O)CC1 [NAN-190-2-NB590] | – | 0.93 | 1.04 | 1.11 | – | 1.02 | – | 1.18 | 0.98 | 1.04 | 1.04 | 1.00 | 0.78 | 1.17 | –
4 | CN1CCN(C2=Nc3cc(Cl)ccc3N(CC(=O)NCCOCCOCCOCCOCCNC(=O)CCc3ccc4n3[B-](F)(F)[N+]3=C(c5ccc[nH]5)C=CC3=C4)c3ccccc32)CC1 [Clozapine-c-2-NB590] | – | – | – | – | – | – | – | – | – | – | – | – | – | – | NanoBRET Fold Response (MCHR1; MCHR1, 0.1μM tracer): 1.00; NanoBRET Fold Response (MCHR1; MCHR1, 1μM tracer): 0.93; NanoBRET Fold Response (AGTR1; AGTR1, 0.1μM tracer): 0.98; NanoBRET Fold Response (AGTR1; AGTR1, 1μM tracer): 0.93; NanoBRET Fold Response (PTGDR2; PTGDR2, 0.1μM tracer): 0.96; NanoBRET Fold Response (PTGDR2; PTGDR2, 1μM tracer): 1.02; NanoBRET Fold Response (P2RY4; P2RY4, 0.1μM tracer): 1.00; NanoBRET Fold Response (P2RY4; P2RY4, 1μM tracer): 0.95; NanoBRET Fold Response (SSTR5; SSTR5, 0.1μM tracer): 1.01; NanoBRET Fold Response (SSTR5; SSTR5, 1μM tracer): 0.99; NanoBRET Fold Response (CCR2; CCR2, 0.1μM tracer): 0.94; NanoBRET Fold Response (CCR2; CCR2, 1μM tracer): 0.75; NanoBRET Fold Response (RXFP2; RXFP2, 0.1μM tracer): 0.62; NanoBRET Fold Response (RXFP2; RXFP2, 1μM tracer): 1.17
5 | COc1ccc2[nH]c(-c3ccc(CNC(=O)CCOCCOCCOCCOCCNC(=O)CCc4ccc5n4[B-](F)(F)[N+]4=C(c6ccc[nH]6)C=CC4=C5)cc3)c(CCNC(C)=O)c2n1 [AzomelatoninICO9-2-NB590] | – | – | – | – | – | – | – | – | – | – | – | – | – | – | NanoBRET Fold Response (MCHR1; 0.1μM tracer): 1.38; NanoBRET Fold Response (MCHR1; 1μM tracer): 0.88; NanoBRET Fold Response (AGTR1; 0.1μM tracer): 0.91; NanoBRET Fold Response (AGTR1; 1μM tracer): 0.94; NanoBRET Fold Response (PTGDR2; 0.1μM tracer): 1.06; NanoBRET Fold Response (PTGDR2; 1μM tracer): 1.12; NanoBRET Fold Response (P2RY4; 0.1μM tracer): 1.03; NanoBRET Fold Response (P2RY4; 1μM tracer): 1.13; NanoBRET Fold Response (SSTR5; 0.1μM tracer): 1.01; NanoBRET Fold Response (SSTR5; 1μM tracer): 1.01; NanoBRET Fold Response (CCR2; 0.1μM tracer): 1.23; NanoBRET Fold Response (CCR2; 1μM tracer): 1.22; NanoBRET Fold Response (RXFP2; 0.1μM tracer): 1.23; NanoBRET Fold Response (RXFP2; 1μM tracer): 0.59
6 | O=C(CCOCCOCCOCCOCCNC(=O)CCc1ccc2n1[B-](F)(F)[N+]1=C(c3ccc[nH]3)C=CC1=C2)NCCCN1CCN(C2=Nc3cc(Cl)ccc3Nc3ccccc32)CC1 [Clozapine-a-2-NB590] | – | – | – | – | – | – | – | – | – | – | – | – | – | – | NanoBRET Fold Response (MCHR1; MCHR1, 0.1μM tracer): 0.87; NanoBRET Fold Response (MCHR1; MCHR1, 1μM tracer): 1.26; NanoBRET Fold Response (AGTR1; AGTR1, 0.1μM tracer): 0.96; NanoBRET Fold Response (AGTR1; AGTR1, 1μM tracer): 1.05; NanoBRET Fold Response (PTGDR2; PTGDR2, 0.1μM tracer): 1.01; NanoBRET Fold Response (PTGDR2; PTGDR2, 1μM tracer): 1.00; NanoBRET Fold Response (P2RY4; P2RY4, 0.1μM tracer): 1.09; NanoBRET Fold Response (P2RY4; P2RY4, 1μM tracer): 0.96; NanoBRET Fold Response (SSTR5; SSTR5, 0.1μM tracer): 0.97; NanoBRET Fold Response (SSTR5; SSTR5, 1μM tracer): 1.00; NanoBRET Fold Response (CCR2; CCR2, 0.1μM tracer): 1.06; NanoBRET Fold Response (CCR2; CCR2, 1μM tracer): 0.73; NanoBRET Fold Response (RXFP2; RXFP2, 0.1μM tracer): 1.23; NanoBRET Fold Response (RXFP2; RXFP2, 1μM tracer): 1.14
7 | CCCn1c(=O)c2[nH]c(-c3ccc(OCC(=O)NCCNC(=O)CCOCCNC(=O)c4ccc(CNC(=O)CCc5ccc6n5[B-](F)(F)[N+]5=C(c7ccc[nH]7)C=CC5=C6)cc4)cc3)nc2n(CCC)c1=O [XAC-3-NB590] | 1.01 | 1.03 | 1.24 | 1.19 | 1.00 | 1.06 | 1.07 | 0.79 | 0.99 | 1.01 | 1.08 | 1.61 | 1.20 | 1.28 | –
